In patent US20250032623A1, “HETEROBIFUNCTIONAL COMPOUNDS AND THEIR USE IN TREATING DISEASE” (HALDA THERAPEUTICS OPCO, INC., priority 2021, published 2025):

Assays:
[1] = biological target: T1, EGFR WT (amino acids 669-1011, Accession Number NP_005219.2) (Homo sapiens, UniProt P00533); test: KdELECT binding assay (Eurofins Discovery), EGFR WT
T1 construct: purchased Eurofins Discovery; host or cells: bacteria (E. coli, BL21-derived, T7 phage)
Description: (§1) Exemplary compounds were tested for ability to bind to EGFR WT (amino acids 669-1011, Accession Number NP_005219.2) or EGFR T790M, L858R (amino acids 669-1011 Accession Number NP_005219.2) expressed from bacteria or mammalian cells, respectively. Compounds were tested using the KdELECT assay at Eurofins Discovery.
(§2) Kinase-tagged T7 phage strains were prepared in an E. coli host derived from the BL21 strain. E. coli were grown to log-phase and infected with T7 phage and incubated with shaking at 32° C. until lysis. The lysates were centrifuged and filtered to remove cell debris. The remaining kinases were produced in HEK-293 cells and subsequently tagged with DNA for qPCR detection. Streptavidin-coated magnetic beads were treated with biotinylated small molecule ligands for 30 minutes at room temperature to generate affinity resins for kinase assays. The liganded beads were blocked with excess biotin and washed with blocking buffer (SeaBlock (Pierce), 1% BSA, 0.05% Tween 20, 1 mM DTT) to remove unbound ligand and to reduce non-specific binding. Binding reactions were assembled by combining kinases, liganded affinity beads, and test compounds in 1× binding buffer (20% SeaBlock, 0.17×PBS, 0.05% Tween 20, 6 mM DTT). Test compounds were prepared as 111× stocks in 100% DMSO. Kd values were determined using an 11-point 3-fold compound dilution series with three DMSO control points. All compounds for Kd measurements are distributed by acoustic transfer (non-contact dispensing) in 100% DMSO. The compounds were then diluted directly into the assays such that the final concentration of DMSO was 0.9%. All reactions performed in polypropylene 384-well plate. Each was a final volume of 0.02 mL. The assay plates were incubated at room temperature with shaking for 1 hour and the affinity beads were washed with wash buffer (1× PBS, 0.05% Tween 20). The beads were then re-suspended in elution buffer (1× PBS, 0.05% Tween 20, 0.5 μM nonbiotinylated affinity ligand) and incubated at room temperature with shaking for 30 minutes. The kinase concentration in the eluates was measured by qPCR.

[2] = test system: HeLa cells; test: Cellular growth inhibition assay (CellTiter-Glo), HeLa cells; type: cell-based; conditions: Homo sapiens, 72 h, three days compound treatment, CellTiter-Glo 2.0, read-out: CTG HELA GI50
Description: (§3) Exemplary compounds were tested for ability to inhibit the proliferation of HEK293 cells or HeLa cells.
(§4) HEK293 and HeLa cells were cultured in DMEM medium supplemented with 10% fetal bovine serum and 1% Penn/Strep. Cells were seeded in white 384-well plates at 500 cells/well in […] complete medium. Following seeding, plates were spun at 300×g for three minutes and cultured at 37° C. with 5% CO2 in a humidified tissue culture incubator.
(§5) After 24 hours, compounds were titrated in 100% DMSO and diluted in complete cell culture medium. […] of compound/media mixture was added to cells to bring total volume in well to […]. DMSO alone was used as a negative control. P lates were then spun at 300×g for three minutes and stored at 37° C. with 5% CO2 for three days.
(§6) On Day 0 and Day 3 of compound treatment, cell viability was quantified with CellTiter-Glo 2.0 reagent (Promega). After equilibrating microplates at room temperature for 30 minutes, 25 μL CellTiter-Glo 2.0 reagent was dispensed into each well to bring total volume to […]. Plates were mixed on shaker for 2 minutes at 500 rpm, followed by a 10-minute incubation at room temperature. Following a quick spin, luminescence readings were measured with an EnVision Plate Reader. Data was normalized to DMSO treated Day 0 and Day 3 readings. A four-parameter non-linear regression curve fit was applied to dose-response data in GraphPad Prism data analysis software to determine the half maximal growth inhibitory concentration (GI50) for each compound.

[3] = test system: HEK293 cells; test: Cellular growth inhibition assay (CellTiter-Glo), HEK293 cells; type: cell-based; conditions: Homo sapiens, 72 h, three days compound treatment, CellTiter-Glo 2.0, read-out: CTG HEK293 GI50
Description: as §3, §4, §5, §6

[4] = biological target: T2, EGFR T790M, L858R (amino acids 669-1011 Accession Number NP_005219.2) (Homo sapiens, UniProt P00533, L858R/T790M); test: KdELECT binding assay (Eurofins Discovery), EGFR T790M, L858R; conditions: read-out: EGFR DM Kd
T2 construct: purchased Eurofins Discovery; host or cells: mammalian cells (HEK-293)
T2 sequence (P00533 669-1011 T790M/L858R): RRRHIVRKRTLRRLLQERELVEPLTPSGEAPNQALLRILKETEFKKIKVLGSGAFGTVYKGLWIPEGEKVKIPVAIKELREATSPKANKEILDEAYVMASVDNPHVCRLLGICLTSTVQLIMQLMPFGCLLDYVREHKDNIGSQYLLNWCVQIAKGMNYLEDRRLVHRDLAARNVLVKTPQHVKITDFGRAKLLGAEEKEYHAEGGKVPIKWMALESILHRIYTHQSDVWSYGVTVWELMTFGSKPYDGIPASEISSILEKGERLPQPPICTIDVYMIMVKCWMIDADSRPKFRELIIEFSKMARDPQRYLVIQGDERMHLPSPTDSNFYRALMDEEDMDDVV
Description: as §1, §2

[5] = biological target: T3, EGFR (Homo sapiens, UniProt P00533); test: KdELECT binding assay, EGFR
T3 construct: purchased
T3 sequence (P00533 25-1210): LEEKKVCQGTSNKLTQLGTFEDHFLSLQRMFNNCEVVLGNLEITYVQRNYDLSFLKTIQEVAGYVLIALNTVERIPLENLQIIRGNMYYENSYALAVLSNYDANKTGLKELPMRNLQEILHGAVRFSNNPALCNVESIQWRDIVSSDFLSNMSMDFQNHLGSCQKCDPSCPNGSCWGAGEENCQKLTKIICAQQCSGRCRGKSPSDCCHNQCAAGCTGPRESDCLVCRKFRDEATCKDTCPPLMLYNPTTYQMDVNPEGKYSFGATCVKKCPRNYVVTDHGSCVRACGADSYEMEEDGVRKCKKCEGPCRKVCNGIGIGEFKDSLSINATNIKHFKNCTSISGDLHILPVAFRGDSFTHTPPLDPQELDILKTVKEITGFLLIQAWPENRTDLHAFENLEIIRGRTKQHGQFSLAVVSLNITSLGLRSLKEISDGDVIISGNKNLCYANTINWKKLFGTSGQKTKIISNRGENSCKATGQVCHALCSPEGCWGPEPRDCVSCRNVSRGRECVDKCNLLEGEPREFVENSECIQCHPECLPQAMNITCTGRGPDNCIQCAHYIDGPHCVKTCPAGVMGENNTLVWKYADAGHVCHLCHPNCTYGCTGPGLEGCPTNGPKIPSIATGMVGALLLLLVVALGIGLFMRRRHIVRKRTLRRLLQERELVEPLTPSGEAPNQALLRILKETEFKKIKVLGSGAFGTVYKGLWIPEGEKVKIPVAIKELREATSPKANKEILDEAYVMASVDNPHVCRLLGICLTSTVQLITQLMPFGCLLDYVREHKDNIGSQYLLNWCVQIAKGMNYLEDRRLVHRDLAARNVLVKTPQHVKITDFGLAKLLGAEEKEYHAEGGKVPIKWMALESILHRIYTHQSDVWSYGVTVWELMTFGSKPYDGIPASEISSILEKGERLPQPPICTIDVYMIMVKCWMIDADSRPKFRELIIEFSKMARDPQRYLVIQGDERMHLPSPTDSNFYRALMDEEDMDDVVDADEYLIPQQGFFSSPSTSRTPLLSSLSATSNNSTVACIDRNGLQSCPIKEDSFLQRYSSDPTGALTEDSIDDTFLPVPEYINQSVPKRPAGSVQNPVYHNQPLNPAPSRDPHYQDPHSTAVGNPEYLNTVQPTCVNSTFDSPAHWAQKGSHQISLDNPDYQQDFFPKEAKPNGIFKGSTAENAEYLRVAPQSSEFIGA
Description: Exemplary compounds were tested for ability to bind to EGFR.
as §2, with “Compounds were tested using a KdELECT assay. Kinase-tagged” for “Kinase-tagged”

T1 sequence (P00533 669-1011): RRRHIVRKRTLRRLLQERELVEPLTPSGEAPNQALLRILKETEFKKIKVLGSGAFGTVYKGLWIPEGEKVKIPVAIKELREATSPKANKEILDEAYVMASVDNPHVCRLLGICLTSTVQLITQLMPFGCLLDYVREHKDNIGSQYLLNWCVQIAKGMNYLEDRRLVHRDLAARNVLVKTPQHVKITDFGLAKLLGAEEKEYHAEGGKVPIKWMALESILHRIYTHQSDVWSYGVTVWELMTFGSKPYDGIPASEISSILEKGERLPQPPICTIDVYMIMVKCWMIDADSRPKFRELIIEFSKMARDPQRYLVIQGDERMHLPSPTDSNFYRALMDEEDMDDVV

Kd [1] | GI50 [2] | Kd [4] | Kd [5] | Structure (SMILES) | GI50 [3]
0.05 to 0.5 µM | 0.5 to 1.5 µM | < 0.05 µM | < 0.05 µM | C=CC(=O)Nc1cc(Nc2nccc(-c3cn(C)c4ccccc34)n2)c(OC)cc1N(C)CCN(C)CCOCCOCCOCCOCCON(C)C(=O)N1N=C(c2cc(F)ccc2F)SC1(CCCN)c1ccccc1 (centres unmarked) [Compound I-67] | 0.5 to 1.5 µM
0.5 to 2.5 µM | < 0.5 µM | < 0.05 µM | < 0.05 µM | C=CC(=O)Nc1cc(Nc2nccc(-c3cn(C)c4ccccc34)n2)c(OC)cc1N(C)CCN(C)CCOCCOCCOCCOCCOCCOCCOCCOCCON(C)C(=O)N1N=C(c2cc(F)ccc2F)SC1(CCCN)c1ccccc1 (centres unmarked) [Compound I-69] | 0.5 to 1.5 µM
> 2.5 µM | – | 0.05 to 0.5 µM | > 2.5 µM | CC[C@@H]1C(=O)N(C)c2cnc(Nc3ccc(C(=O)NCCOCCOCCOCCOCCOCCOCCN(C)C/C=C/C(=O)Nc4cc(Nc5nccc(-c6cn(C)c7ccccc67)n5)c(OC)cc4N(C)CCN(C)C)cc3OC)nc2N1C1CCCC1 [Compound I-118, 4-[[(7R)-8-cyclopentyl-7-ethyl-5-methyl-6-oxo-7H-pteridin-2-yl]amino]-N-[2-[2-[2-[2-[2-[2-[2-[[(E)-4-[2-[2-(dimethylamino)ethyl-methyl-amino]-4-methoxy-5-[[4-(1-methylindol-3-yl)pyrimidin-2-yl]amino]anilino]-4-oxo-but-2-enyl]-methyl-amino]ethoxy]ethoxy]ethoxy]ethoxy]ethoxy]ethoxy]ethyl]-3-methoxy-benzamide] | 0.5 to 1.5 µM
> 2.5 µM | – | 0.05 to 0.5 µM | > 2.5 µM | CCC1C(=O)N(C)c2cnc(Nc3ccc(C(=O)NCCOCCOCCN(C)CC=CC(=O)NC4CN(c5nc(Nc6cn(C)nc6OC)c6ncn(C)c6n5)CC4F)cc3OC)nc2N1C1CCCC1 [Compound I-120, 4-[[(7R)-8-cyclopentyl-7-ethyl-5-methyl-6-oxo-7H-pteridin-2-yl]amino]-N-[2-[2-[2-[[(E)-4-1[[(3R,4R)-4-fluoro-1-[6-1[(3-methoxy-1-methyl-pyrazol-4-yl)amino]-9-methyl-purin-2-yl]pyrrolidin-3-yl]amino]-4-oxo-but-2-enyl]-methylamino]ethoxy]ethoxy]ethyl]-3-methoxy-benzamide] | 0.5 to 1.5 µM
0.5 to 2.5 µM | – | 0.05 to 0.5 µM | 0.5 to 2.5 µM | CC[C@@H]1C(=O)N(C)c2cnc(Nc3ccc(C(=O)NCCOCCOCCOCCOCCOCCOCCN(C)C/C=C/C(=O)NC4CN(c5nc(Nc6cn(C)nc6OC)c6ncn(C)c6n5)C[C@H]4F)cc3OC)nc2N1C1CCCC1 (stereo partly drawn) [Compound I-121, 4-[[(7R)-8-cyclopentyl-7-ethyl-5-methyl-6-oxo-7H-pteridin-2-yl]amino]-N-[2-[2-[2-[2-[2-[2-[2-[[(E)-4-[1[(3R,4R)-4-fluoro-1-1[6-1[(3-methoxy-1-methyl-pyrazol-4-yl)amino]-9-methyl-purin-2-yl]pyrrolidin-3-yl]amino]-4-oxo-but-2-enyl]-methyl-amino]ethoxy]ethoxy]ethoxy]ethoxy]ethoxy]ethoxy]ethyl]-3-methoxy-benzamide] | 0.5 to 1.5 µM
0.5 to 2.5 µM | 1.5 to 5 µM | < 0.05 µM | 0.05 to 0.5 µM | C=CC(=O)Nc1cc(Nc2nccc(-c3cn(C)c4ccccc34)n2)c(OC)cc1N(C)CCN(C)CCCN1CCN(CCCNC(=O)c2ccc(Nc3ncc4c(n3)N(C3CCCC3)[C@H](CC)C(=O)N4C)c(OC)c2)CC1 [Compound I-122, 4-[(8-cyclopentyl-7-ethyl-5-methyl-6-oxo-7H-pteridin-2-yl)amino]-3-methoxy-N-[3-[4-[3-[2-[5-methoxy-N-methyl-4-[[4-(1-methylindol-3-yl)pyrimidin-2-yl]amino]-2-(prop-2-enoylamino)anilino]ethyl-methyl-amino]propyl]piperazin-1-yl]propyl]benzamide] | 1.5 to 5 µM
> 2.5 µM | 0.5 to 1.5 µM | < 0.05 µM | > 2.5 µM | CC[C@@H]1C(=O)N(C)c2cnc(Nc3ccc(C(=O)NCCOCCOCCOCCOCCN(C)C/C=C/C(=O)Nc4cc(Nc5nccc(-c6cn(C)c7ccccc67)n5)c(OC)cc4N(C)CCN(C)C)cc3OC)nc2N1C1CCCC1 [Compound I-123, 4-[[(7R)-8-cyclopentyl-7-ethyl-5-methyl-6-oxo-7H-pteridin-2-yl]amino]-N-[2-[2-1[2-[2-[2-[[(E)-4-[2-1[2-(dimethylamino)ethyl-methyl-amino]-4-methoxy-5-[1[4-(1-methylindol-3-yl)pyrimidin-2-yl]amino]anilino]-4-oxo-but-2-enyl]-methyl-amino]ethoxy]ethoxy]ethoxy]ethoxy]ethyl]-3-methoxy-benzamide] | 0.5 to 1.5 µM
0.05 to 0.5 µM | > 5 µM | < 0.05 µM | 0.05 to 0.5 µM | C=CC(=O)N[C@@H]1CN(c2nc(Nc3cn(CCOCCOCCOCCOCCNC(=O)c4ccc(Nc5ncc6c(n5)N(C5CCCC5)[C@H](CC)C(=O)N6C)c(OC)c4)nc3OC)c3ncn(C)c3n2)C[C@H]1F [Compound I-125] | 1.5 to 5 µM
0.5 to 2.5 µM | 0.5 to 1.5 µM | < 0.05 µM | 0.5 to 2.5 µM | COc1cc(N(C)CCN(C)C)c(NC(=O)/C=C/CN(C)CCCN2CCN(CCCON(C)C(=O)N3N=C(c4cc(F)ccc4F)S[C@@]3(CCCN)c3ccccc3)CC2)cc1Nc1nccc(-c2cn(C)c3ccccc23)n1 [Compound I-146, (2S)-2-(3-aminopropyl)-5-(2,5-difluorophenyl)-N-[3-[4-1[3-[[(E)-4-1[2-[2-(dimethylamino)ethyl-methyl-amino]-4-methoxy-5-1[[4-(1-methylindol-3-yl)pyrimidin-2-yl]amino]anilino]-4-oxo-but-2-enyl]-methyl-amino]propyl]piperazin-1-yl]propoxy]-N-methyl-2-phenyl-1,3,4-thiadiazole-3-carboxamide] | –
